According to ChEMBL document CHEMBL5131397, “Discovery and Optimization of Pyrazole Amides as Inhibitors of ELOVL1” (J Med Chem, 2021):
pIC50: −log10 of the molar value. Calls of active or inactive are those of the source. The rule behind the calls is not given here.

Key:
[1] = target: T1, Very long chain fatty acid elongase 1 (Homo sapiens) (UniProt Q9BW60); test: Inhibition of ELOVL-1 in human HEK2936E cells assessed as reduction in C24:0 lysophosphatidyl choline synthesis at 100 nM in presence of 13C-labeled acetate measured after 48 hrs; type: cell-based
T1 sequence (whole entry): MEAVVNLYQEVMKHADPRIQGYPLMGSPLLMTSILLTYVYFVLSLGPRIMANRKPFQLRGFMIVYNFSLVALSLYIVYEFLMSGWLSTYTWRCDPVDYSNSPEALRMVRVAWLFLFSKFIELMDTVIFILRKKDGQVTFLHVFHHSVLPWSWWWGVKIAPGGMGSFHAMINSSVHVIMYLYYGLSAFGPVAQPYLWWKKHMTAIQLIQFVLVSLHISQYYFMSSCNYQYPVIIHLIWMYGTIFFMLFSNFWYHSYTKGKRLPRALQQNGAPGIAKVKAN

[2] = Unbound brain-to-plasma concentration ratio in rat at 3 mg/kg, po measured after 120 mins; type: ADME, organism-based; conditions: brain and plasma, read-out: K(p,uu,brain)
[3] = target: Voltage-gated inwardly rectifying potassium channel KCNH2 (Homo sapiens, UniProt Q12809); test: Inhibition of human ERG by patch-clamp assay; type: toxicity
[4] = AUC (infinity) in Sprague-Dawley rat at 3 mg/kg, po upto 24 hrs by LC/MS/MS analysis; type: ADME, organism-based; design: dose 3 mg/kg, time < 24 hrs, route po; conditions: in vivo
[5] = Volume of distribution at steady state in Cynomolgus monkey at 1 mg/kg, iv upto 48 hrs by LC/MS/MS analysis; type: ADME, organism-based, Macaca fascicularis; conditions: in vivo, read-out: Vdss
[6] = Clearance in mouse at 1 mg/kg, iv upto 48 hrs by LC/MS/MS analysis; type: ADME, organism-based; conditions: in vivo
[7] = AUC (infinity) in Beagle dog at 3 mg/kg, po upto 24 hrs by LC/MS/MS analysis; type: ADME, organism-based, Canis lupus familiaris; design: time < 24 hrs, dose 3 mg/kg, route po; conditions: in vivo
[8] = Cmax in Beagle dog at 3 mg/kg, po upto 24 hrs by LC/MS/MS analysis; type: ADME, organism-based, Canis lupus familiaris; design: dose 3 mg/kg, time < 24 hrs, route po; conditions: in vivo
[9] = Oral bioavailability in Beagle dog at 3 mg/kg upto 24 hrs by LC/MS/MS analysis; type: ADME, organism-based, Canis lupus familiaris; conditions: in vivo
[10] = Lipophilicity, logD of compound at pH 7.4; type: physicochemical; conditions: buffer
[11] = Plasma protein binding in human at 5 uM; type: ADME, cell-free; conditions: read-out: PPB (converted)
[12] = target: T2, Very long chain fatty acid elongase 7 (Homo sapiens) (UniProt A1L3X0); test: Inhibition of ELOVL-7 in human HEK2936E cells assessed as increase in C20:0 lipo phosphatidyl choline synthesis at 100 nM in presence of 13C-labeled acetate measured after 48 hrs; type: cell-based
T2 sequence (whole entry): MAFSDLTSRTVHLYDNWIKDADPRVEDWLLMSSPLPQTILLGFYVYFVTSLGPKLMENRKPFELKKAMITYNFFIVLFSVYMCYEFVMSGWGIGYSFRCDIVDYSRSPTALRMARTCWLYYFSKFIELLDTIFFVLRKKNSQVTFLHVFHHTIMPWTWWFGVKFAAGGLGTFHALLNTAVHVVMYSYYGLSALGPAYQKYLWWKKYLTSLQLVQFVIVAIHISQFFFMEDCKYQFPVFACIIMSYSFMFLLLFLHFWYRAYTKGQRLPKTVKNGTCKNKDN

[13] = tested on: Fibroblast; test: Reduction in C26:0 lysophosphatidyl choline synthesis in primary human CALD patient-derived fibroblast incubated for 48 hrs; type: functional, cell-based; conditions: DDE = dose-dependent effect
[14] = tested on: Mus musculus; test: Reduction of C26:0 LPC level in ABCD1 knock out mouse blood at 1 to 16 mg/kg, po qd measured after 6 days of dosing by LC-MS/MS analysis; type: functional, organism-based; conditions: dose 1-16 mg/kg, time 6.0 day
[15] = Reduction in C26:0 LPC level in ABCD1 knock out mouse blood at 0.5 mg/kg, po qd for 105 days by LC-MS/MS analysis relative to control; type: functional; design: scale not given: the % may be the effect or the level left; conditions: time 105 day
[16] = tested on: Mus musculus; test: Reduction in C26:0/C16:0 LPC level in normal diet fed ABCD1 knock out mouse blood administered orally qd measured after 14 day by LC-MS/MS analysis; type: functional, tissue-based; conditions: route po, DDE = dose-dependent effect
[17] = Reduction in C26:0/C16:0 LPC level in wild-type Sprague-Dawley rat at 100 mg/kg, po qd treated for 7 days by LC-MS/MS analysis; type: functional; design: scale not given: the % may be the effect or the level left; conditions: time 7 day
[18] = tested on: Mus musculus; test: Reduction in C26:0/C16:0 LPC level in high fat diet fed ABCD1 knock out mouse blood at 1 to 8 mg/kg, po qd measured on day 28 after 7 days of treatment discontinuation by LC-MS/MS analysis; type: functional, organism-based; conditions: dose 1-8 mg/kg, time 28.0 day
[19] = Reduction in C26:0/C16:0 total VLFCA levels in ABCD1 knock out mouse CNS at 10 mg/kg, po qd measured after 2 months of dosing by LC-MS/MS analysis; type: functional; design: scale not given: the % may be the effect or the level left; conditions: 1460 h
[20] = tested on: Mus musculus; test: Reduction in C22:0/C16:0 LPC level in ABCD1 knock out mouse CNS at 1 to 10 mg/kg, po qd measured after 3 months of dosing by LC-MS/MS analysis; type: functional, organism-based; conditions: dose 1-10 mg/kg
[21] = tested on: Mus musculus; test: Reversal of loss of thermal pain sensitivity in ABCD1 knock out mouse assessed as increase in latency at 8 to 32 mg/kg, po qd treated for 6 months by Hargreaves test; type: functional, organism-based; conditions: dose 8-32 mg/kg
[22] = Toxicity in Sprague-Dawley rat assessed as reversal of lesions at 5 to 50 mg/kg/day, po administered for 8 weeks and measured after cessation dosing; type: organism-based; conditions: in vivo, 1344 h, dose 5-50 mg/kg/day
[23] = Toxicity in Sprague-Dawley rat assessed as adverse effects at 5 to 50 mg/kg/day, po administered for 8 weeks and measured after cessation dosing by long-term safety study; type: organism-based; conditions: in vivo, 1344 h, dose 5-50 mg/kg/day
[24] = Toxicity in juvenile Sprague-Dawley rat assessed as corneal lesions at 5 to 75 mg/kg/day, po treatment started from postnatal day 18 to 114 days; type: organism-based; conditions: in vivo, dose lower 5 mg/kg/day, time lower 18 day, dose upper 75 mg/kg/day, time upper 114 day
[25] = Toxicity in Cynomolgus monkey assessed as skin inflammatory infiltrates at 5 to 50 mg/kg/day, po administered for 14 days by microscopic observation analysis; type: organism-based, Macaca fascicularis; conditions: in vivo, 336 h, dose 5-50 mg/kg/day, time 14 day
[26] = Toxicity in Cynomolgus monkey assessed as skin lesions at 1 mg/kg/day, po observed from 8 to 13 weeks; type: organism-based, Macaca fascicularis; conditions: in vivo, time 8-13 weeks

Sequence of Voltage-gated inwardly rectifying potassium channel KCNH2 (Q12809 whole entry): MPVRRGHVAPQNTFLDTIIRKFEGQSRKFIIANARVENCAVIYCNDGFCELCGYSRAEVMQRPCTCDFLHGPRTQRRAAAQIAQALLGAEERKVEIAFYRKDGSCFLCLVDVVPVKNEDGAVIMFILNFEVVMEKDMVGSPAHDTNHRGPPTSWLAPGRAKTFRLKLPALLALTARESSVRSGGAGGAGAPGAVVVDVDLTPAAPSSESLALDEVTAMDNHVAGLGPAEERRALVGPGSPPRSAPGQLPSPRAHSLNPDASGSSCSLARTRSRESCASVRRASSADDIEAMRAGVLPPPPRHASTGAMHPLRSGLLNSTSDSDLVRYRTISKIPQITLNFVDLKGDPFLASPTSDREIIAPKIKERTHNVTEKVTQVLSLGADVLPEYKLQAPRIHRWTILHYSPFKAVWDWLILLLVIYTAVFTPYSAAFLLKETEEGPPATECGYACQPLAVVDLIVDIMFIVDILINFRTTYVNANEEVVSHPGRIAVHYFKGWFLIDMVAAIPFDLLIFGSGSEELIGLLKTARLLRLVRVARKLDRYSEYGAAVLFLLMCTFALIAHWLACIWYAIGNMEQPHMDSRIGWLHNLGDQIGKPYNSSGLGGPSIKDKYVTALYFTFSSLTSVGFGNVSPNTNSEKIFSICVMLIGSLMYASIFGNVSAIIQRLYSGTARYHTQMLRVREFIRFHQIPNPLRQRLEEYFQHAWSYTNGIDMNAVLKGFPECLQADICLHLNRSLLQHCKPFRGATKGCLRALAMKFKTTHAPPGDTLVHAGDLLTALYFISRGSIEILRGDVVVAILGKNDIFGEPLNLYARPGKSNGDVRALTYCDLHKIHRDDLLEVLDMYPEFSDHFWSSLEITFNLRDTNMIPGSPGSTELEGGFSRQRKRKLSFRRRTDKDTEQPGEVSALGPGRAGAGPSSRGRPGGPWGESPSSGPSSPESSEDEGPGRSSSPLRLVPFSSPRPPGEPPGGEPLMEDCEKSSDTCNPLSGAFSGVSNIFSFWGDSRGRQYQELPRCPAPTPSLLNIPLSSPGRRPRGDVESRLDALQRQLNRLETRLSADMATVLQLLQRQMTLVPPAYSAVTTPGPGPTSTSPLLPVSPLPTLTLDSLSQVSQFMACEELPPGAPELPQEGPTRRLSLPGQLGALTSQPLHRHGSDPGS

## O=C(Nc1ccn(-c2ccnc(F)c2)n1)C1(c2ccccc2F)CC1
[1]
  inhibition: Active
[2]
  Kp uu at 2 h: 1.1
[3]
  pIC50: < 4.52
[4]
  AUC: 442 ng·h/mL
[5]
  Vd: 3 L/kg
[6]
  clearance: 10.7 mL/min/kg
[7]
  AUC(0-inf): 1250 ng·h/mL
[8]
  Cmax: 261 ng/mL
[9]
  bioavailability: 77%
[10]
  logD: 3.2
[11]
  fraction unbound at 5 µM: 0.062
[12]
  inhibition: Active
[13]
  Activity: Dde
[14]
  Activity: Active
[15]
  Activity: 50%
[16]
  Activity: Dde
[17]
  Activity: 77%
[18]
  Activity: Active
[19]
  Activity: 50%
[20]
  Activity: Active
[21]
  Activity: Active
[22]
  Activity: Non-Toxic
[23]
  Activity: Non-Toxic
[24]
  Activity: Toxic
[25]
  Activity: Toxic
[26]
  Activity: Non-Toxic
